Earlier results on one substance are cited in patent US11173186B2, “Dosing regime and formulations for type B adenovirus” (PSIOXUS THERAPEUTICS LIMITED, priority 2013, dated 2021).

For this data set the following is noted: interim analysis; intratumoural talimogene laherparepvec vs subcutaneous GM-CSF.

As for “GM-CSF: subcutaneously administered GM-CSF, comparator in the OPTiM trial”, the durable response rate is on record as 2%.
